From EP0802181B1, “Retinoids” (F. HOFFMANN-LA ROCHE AG, priority 1996, dated 1997)
Read-outs that look alike come from different tables or passages of the source.

How the values were obtained:
limb bud cell culture = limb bud cell culture assay (evaluation of teratogenic potential); format: cell-based
Text: Teratogene Effekte gehören zu den schwerschwiegensten Nebenwirkungen aller Retinoide.

Sebumdrüsen = experiment: Minipig model (in vivo), histology of skin biopsies
Text: Die Wirksamkeit der erfindungsgemässen Verbindungen bei der Behandlung der Akne kann mit den nachstehend beschriebenen Versuchsanordnungen gezeigt werden: • 1. Hemmung der Proliferation menschlicher Sebocyten (in vitro) Literatur: Methods in Enzymology 190, 334 (1990), T. Doran and S. Shapiro • 2. Aenderung der Differenzierung von Schweinesebocyten (invitro), Induktion von Keratin 7. Kulturen von Schweinesebocyten werden aus isolierten Sebumdrüsen erwachsener Minischweine hergestellt. Sie reagieren auf die Behandlung mit Retinoiden mit der Expression von Keratin 7, was auch der in vivo Situation entspricht. Keratin 7 wird als ein Marker für eine modifizierte Differenzierung der Sebocyten angesehen. Der entstehende Phenotyp kann kein Sebum mehr produzieren. Die Messung der Keratin 7-Induktion basiert auf einem ELISA assay unter Verwendung eines Maus-monoklonalen Antikeratin 7-Antikörpers. • 3. Minipig-Modell (in vivo) Die Haut der Minischweine hat eine ähnliche anatomische Struktur wie menschliche Haut. Im besonderen ähneln die Sebumdrüsen denen menschlicher Aknepatienten. Unter Retinoid-Behandlung zeigen sie die gleichen histologischen Veränderungen wie beim Menschen. Die Schweine erhalten täglich eine orale Dosis der Versuchssubstanz während 8 Wochen. Alle 2 Wochen wird eine Biopsie genommen und histologisch untersucht.

[1] = limb bud cell culture assay, IC50 correlates with in vivo teratogenicity, read-out: IC50

SMILES | IC50 (limb bud cell culture; [1]) [nM] | IC50 (limb bud cell culture) [nM] | other results
CC1=C(/C=C/C(C)=C/C=C/C(C)=C\C(=O)O)C(C)(C)C[C@H](O)C1 [Beispiel 1, (2Z,4E,6E,8E)-(R)-9-(4-Hydroxy-2,6,6-trimethyl-cyclohex-1-enyl)-3,7-dimethyl-nona-2,4,6,8-tetraensäure] | > 1000 | – | Verkleinerung der Sebumdrüsen (Sebumdrüsen; daily oral dose 10 mg/kg, after 3-4 weeks): deutliche Verkleinerung der Sebumdrüsen; Sebumdrüsen nach 8 Wochen (Sebumdrüsen; daily oral dose 10 mg/kg, after 8 weeks): weitgehend verschwunden; Nebenwirkungen auf Haut und Schleimhäute (Sebumdrüsen; oral dose 50 mg/kg, in contrast to Isotretinoin): keinerlei Nebenwirkungen auf Haut und Schleimhäute
CC1=C(C#C/C(C)=C/C=C/C(C)=C\C(=O)O)C(C)(C)C[C@H](O)C1 [Beispiel 3, (2Z,4E,6E)-(R)-9-(4-Hydroxy-2,6,6-trimethyl-cyclohex-1-enyl)-3,7-dimethyl-nona-2,4,6-trien-8-yn-säure] | > 1000 | – | –
CC1=C(/C=C/C(C)=C/C=C/C(C)=C\C(=O)O)C(C)(C)C(=O)C=C1 [Beispiel 4, (2Z,4E,6E,8E)-9-(5-Oxo-2,6,6-trimethyl-cyclohexa-1,3-dienyl)-3,7-dimethyl-nona-2,4,6,8-tetraensäure] | > 1000 | – | –
CC1=C(/C=C/C(C)=C/C=C/C(C)=C\C(=O)O)C(C)(C)CCC1 [Isotretinoin, reference compound] | – | 200 | –
CC1=C(/C=C/C(C)=C/C=C/C(C)=C/C(=O)O)C(C)(C)CCC1 [Tretinoin, reference compound] | – | 80 | –
